Measurements from paper PMC6494957 (Frontiers in Microbiology, 2019).
Where two headings read alike, the source gives them in different places.

Experiments:
[1] = tested on: P. mirabilis (n = 21) clinical isolates from otitis externa cases in dogs; assay: MIC/MBC and checkerboard, canine otitis externa isolates; type: cell-based, Proteus mirabilis; details: for MIC50 / MIC90: Proteus mirabilis
Text: (§1) Escherichia coli ATCC 25922, E. coli ATCC 11229, P. aeruginosa ATCC 27853, P. aeruginosa PA01, Pseudomonas putida ATCC 17428, P. mirabilis ATCC 43071, K. pneumoniae ATCC 13883, A. baumannii ATCC 19606, and A. baumannii ATCC 12457 were used for preliminary susceptibility testing and combination experiments. S. aureus ATCC 29213 and S. pneumoniae ATCC 49619 were used as internal quality controls. A variety of bacterial organisms from both human and canine infections were investigated in this study (n = 119 isolates in total). Twenty-eight clinical Acinetobacter spp. isolates were obtained from cases of human skin and soft tissue infections, including 18 Acinetobacter baumannii and 10 A. calcoaceticus, kindly provided by a person (Institute of Medical and Veterinary Science, South Australia). […] Ninety-one clinical isolates were obtained from cases of canine otitis externa, including seven methicillin-susceptible S. pseudintermedius (MSSP), 13 multidrug- and methicillin-resistant S. pseudintermedius (MRSP) ([Saputra et al., 2017]), 20 beta-haemolytic Streptococcus spp., 30 P. aeruginosa (10 of them resistant to gentamicin and 21 P. mirabilis isolates). These isolates were obtained from the bacterial collection of the national survey of antimicrobial resistance in animals conducted in Australia. Swab samples from dogs with signs of otitis externa were collected by veterinarians and submitted to government, private or university diagnostic laboratories throughout Australia. After routine bacterial identification and the removal of confidential information, the participating veterinary diagnostic laboratories submitted the bacteria and their clinical information to PC2 Laboratories, Australian Centre for Antimicrobial Resistance Ecology, School of Animal and Veterinary Sciences, University of Adelaide, Roseworthy Campus, Roseworthy, SA, Australia, for further study. Thus, animal ethics approval was not required in this study. These organisms were identified to species level using biochemical testing and MALDI-TOF mass spectrometry (Bruker, Preston, VIC, Australia).
(§2) The MIC for ampicillin or gentamicin against each isolate was determined for each test to serve as an internal quality control. The MICs of isolates were determined by visual reading and using an EnSpire Multimode Plate Reader 2300 atA600nm.
(§3) Briefly, 10 μl aliquots from each duplicate well from the MIC assays (starting from the MIC for each compound) were inoculated onto a sheep blood agar (SBA) plate and incubated at 37°C.
(§4) Briefly, antimicrobial stock solutions for robenidine and PMBN were prepared at a concentration of 12.8 mg/ml in DMSO. […] A 1 μl aliquot of the first compound from each combination was dispensed along the abscissa (from row A to G) of the 96-well microplate, while the second compound was dispensed along the ordinate (from column 12 to column 3) using an electronic multichannel pipette followed by 89 μl of LB broth. Each well of the plate was inoculated with an aliquot of 10 μl bacterial suspension at a concentration of 1-5 × 10^6 colony forming units (CFU) per ml. Subsequently, the plate was incubated at 37°C for 24 h. The fractional inhibitory concentration index (FICI) described the results of the combinations, and was calculated utilizing the following formula:
(§5) DRI = MIC of drug alone/MIC of drug in combination

[2] = tested on: S. pseudintermedius (n = 20) clinical isolates from otitis externa cases in dogs; assay: as above; type: cell-based, Staphylococcus pseudintermedius; details: for MIC50 / MIC90: Staphylococcus pseudintermedius
Text: as §1, §2, §3, §4, §5

P. aeruginosa PA01 = assay: MIC broth microdilution and checkerboard; type: cell-based, Pseudomonas aeruginosa; details: for MIC: Pseudomonas aeruginosa
Method: as §2, §4, §5

[3] = tested on: preformed biofilms of P. aeruginosa PA01 and clinical isolates of P. aeruginosa; assay: Antibiofilm susceptibility (MBEC device) and biofilm checkerboard; type: cell-based, Pseudomonas aeruginosa; details: Gram-negative (P. aeruginosa) biofilms; vs growth control
Method: Briefly, biofilms of P. aeruginosa PA01, two clinical isolates of P. aeruginosa isolates and two clinical isolates of S. pseudintermedius were formed by inoculating 150 μl of 10^7 CFU/ml of each bacterial suspension in the MBEC^TM device. The inoculated device was aerobically incubated on an orbital shaker at 37°C (OM11, Ratek Instruments Pty Ltd., Australia) for 24 h to produce equivalent (Uniform) biofilms on all pegs. […] Following antimicrobial challenge, the biofilms were rinsed twice with phosphate buffered saline (pH = 7) and disrupted via sonication (Soniclean, Model 160TD, Australia) for 10 min into the recovery medium. Viable cell counts were determined for recovered cells (colony-forming units per peg) after preparing a serial dilution and plating 10 μl in duplicates of each dilution onto plate count agar. Viable counts were then expressed as a percentage of the mean CFU of growth controls. MBEC was defined as the lowest concentration of antimicrobial agent that eradicates the biofilms recovered from the antimicrobial challenge.
Briefly, the MBEC^TM High-throughput assay system (MBEC^TM BioProducts, Innovotech, Canada) was used for the preparation of Gram-positive and Gram-negative biofilm producing bacteria as described above for antibiofilm susceptibility testing. […] Subsequently, the plate was incubated at 37°C for 24 h.

[4] = tested on: P. aeruginosa (n = 30) clinical isolates from otitis externa cases in dogs; assay: MIC/MBC and checkerboard, canine otitis externa isolates; type: cell-based, Pseudomonas aeruginosa; details: for MIC50 / MIC90: Pseudomonas aeruginosa
Text: as §1, §2, §3, §4, §5

P. putida ATCC 17428 = assay: microbe, parasite or virus in culture; details: for MIC: Pseudomonas putida
Method: as §2, §4, §5

[5] = tested on: Beta-haemolytic streptococci (n = 20) clinical isolates from otitis externa cases in dogs; assay: MIC/MBC and checkerboard, canine otitis externa isolates; type: cell-based, beta-haemolytic Streptococcus spp.; details: for MIC50 / MIC90: Streptococcus
Text: as §1, §2, §3, §4, §5

[6] = canine otitis externa, read-out: MIC50, single drug
[7] = canine otitis externa, read-out: MIC90, single drug
[8] = read-out: MIC50, single drug (mM in parentheses)
[9] = read-out: MIC90, single drug (mM in parentheses)
[10] = concentration of the labelled component

MBC/MIC row, EDTA in combination [1]: 750 µg/mL | MBC/MIC row, EDTA in combination (mM in parentheses) [1]: 2 mM | MIC range, single drug (mM in parentheses) [1]: 0.5 to 2 mM | MIC50, in combination of EDTA and ROB (mM in parentheses) ([1]; EDTA component): 1 mM | MIC90, in combination of EDTA and ROB (mM in parentheses) ([1]; EDTA component): 1 mM | MIC range, in combination of EDTA and ROB (mM in parentheses) ([1]; EDTA component): 0.5 to 1 mM | MIC50 [1, 6]: 380 µg/mL | MIC90 [1, 7]: 750 µg/mL | MIC50 [1, 8]: 1 mM | MIC90 [1, 9]: 2 mM | MIC range, single drug ([1]; canine otitis externa): 190 to 750 µg/mL | MIC50, in combination of EDTA and ROB [1, 10]: 380 µg/mL | MIC90, in combination of EDTA and ROB [1, 10]: 380 µg/mL | MIC range, in combination of EDTA and ROB [1, 10]: 190 to 380 µg/mL | MBC/MIC row, EDTA in combination [2]: 750 µg/mL | MBC/MIC row, EDTA in combination (mM in parentheses) [2]: 2 mM | MIC range, single drug (mM in parentheses) [2]: 0.25 to 1 mM | MIC50, in combination of EDTA and ROB (mM in parentheses) ([2]; EDTA component): 0.25 mM | MIC90, in combination of EDTA and ROB (mM in parentheses) ([2]; EDTA component): 0.25 mM | MIC range, in combination of EDTA and ROB (mM in parentheses) ([2]; EDTA component): 0.25 mM | MIC50 [2, 6]: 190 µg/mL | MIC90 [2, 7]: 190 µg/mL | MIC50 [2, 8]: 0.5 mM | MIC90 [2, 9]: 0.5 mM | MIC range, single drug ([2]; canine otitis externa): 95 to 380 µg/mL | MIC50, in combination of EDTA and ROB [2, 10]: 95 µg/mL | MIC90, in combination of EDTA and ROB [2, 10]: 95 µg/mL | MIC range, in combination of EDTA and ROB [2, 10]: 95 µg/mL | MIC in combination EDTA:ROB (mM in parentheses) (P. aeruginosa PA01; EDTA component): 2.5 mM | MIC (P. aeruginosa PA01; read-out: MIC, single drug): 1900 µg/mL | MIC (P. aeruginosa PA01; read-out: MIC, single drug (mM in parentheses)): 5 mM | MIC in combination EDTA:ROB (P. aeruginosa PA01; [10]): 950 µg/mL | MBC/MIC row, EDTA in combination [4]: 750 µg/mL | MBC/MIC row, EDTA in combination (mM in parentheses) [4]: 2 mM | MIC range, single drug (mM in parentheses) [4]: 2 to 12 mM | MIC50, in combination of EDTA and ROB (mM in parentheses) ([4]; EDTA component): 4 mM | MIC90, in combination of EDTA and ROB (mM in parentheses) ([4]; EDTA component): 4 mM | MIC range, in combination of EDTA and ROB (mM in parentheses) ([4]; EDTA component): 1 to 4 mM | MIC50 [4, 6]: 3000 µg/mL | MIC90 [4, 7]: 3000 µg/mL | MIC50 [4, 8]: 8 mM | MIC90 [4, 9]: 8 mM | MIC range, single drug ([4]; canine otitis externa): 750 to 4500 µg/mL | MIC50, in combination of EDTA and ROB [4, 10]: 1500 µg/mL | MIC90, in combination of EDTA and ROB [4, 10]: 1500 µg/mL | MIC range, in combination of EDTA and ROB [4, 10]: 380 to 1500 µg/mL | MIC in combination EDTA:ROB (mM in parentheses) (P. putida ATCC 17428; P. putida ATCC 17428, EDTA component): 2.5 mM | MIC in combination EDTA:ROB (P. putida ATCC 17428; P. putida ATCC 17428, concentration of the labelled component): 950 µg/mL | MIC (P. putida ATCC 17428; ATCC17428, read-out: MIC, single drug): 1900 µg/mL | MIC (P. putida ATCC 17428; ATCC17428, read-out: MIC, single drug (mM in parentheses)): 5 mM
Structure (SMILES): O=C(O)CN(CCN(CC(=O)O)CC(=O)O)CC(=O)O [EDTA, ethylenediaminetetraacetic acid]
DRI EDTA:ROB (P. aeruginosa PA01; DRI of the labelled component): 2 | concentration with significant disruption of 24 h preformed biofilms [3]: 1 mM | DRI EDTA:ROB (P. putida ATCC 17428; P. putida ATCC 17428, DRI of the labelled component): 2 | MBC/MIC row, EDTA in combination [5]: 750 µg/mL | MBC/MIC row, EDTA in combination (mM in parentheses) [5]: 2 mM | MIC range, single drug (mM in parentheses) [5]: 0.5 to 2 mM | MIC50, in combination of EDTA and ROB (mM in parentheses) ([5]; EDTA component): 0.5 mM | MIC90, in combination of EDTA and ROB (mM in parentheses) ([5]; EDTA component): 1 mM | MIC range, in combination of EDTA and ROB (mM in parentheses) ([5]; EDTA component): 0.25 to 1 mM | MIC50 [5, 6]: 380 µg/mL | MIC90 [5, 7]: 750 µg/mL | MIC50 [5, 8]: 1 mM | MIC90 [5, 9]: 2 mM | MIC range, single drug ([5]; canine otitis externa): 190 to 750 µg/mL | MIC50, in combination of EDTA and ROB [5, 10]: 190 µg/mL | MIC90, in combination of EDTA and ROB [5, 10]: 380 µg/mL | MIC range, in combination of EDTA and ROB [5, 10]: 95 to 380 µg/mL
